Data as given in ChEMBL document CHEMBL4649995, “Discovery of a PCAF Bromodomain Chemical Probe” (Angew Chem Int Ed Engl, 2017).

Key:
Settings in all cases: Compound concentration 10.0 uM, Protein concentration 2.0 uM
[1] = molecular target: Histone-lysine N-methyltransferase ASH1L (Homo sapiens) (UniProt Q9NR48)
[2] = molecular target: CREB-binding protein (Homo sapiens) (UniProt Q92793)
[3] = molecular target: SWI/SNF-related matrix-associated actin-dependent regulator of chromatin subfamily A member 4 (Homo sapiens) (UniProt P51532)
[4] = molecular target: Histone acetyltransferase p300 (Homo sapiens) (UniProt Q09472)
[5] = molecular target: Nucleosome-remodeling factor subunit BPTF (Homo sapiens) (UniProt Q12830)
[6] = molecular target: Protein polybromo-1 (Homo sapiens) (UniProt Q86U86)
[7] = molecular target: Bromodomain-containing protein 7 (Homo sapiens) (UniProt Q9NPI1)
[8] = molecular target: ATPase family AAA domain-containing protein 2 (Homo sapiens) (UniProt Q6PL18)
[9] = molecular target: Bromodomain-containing protein 3 (Homo sapiens) (UniProt Q15059)
[10] = molecular target: Bromodomain testis-specific protein (Homo sapiens) (UniProt Q58F21)
[11] = molecular target: ATPase family AAA domain-containing protein 2B (Homo sapiens) (UniProt Q9ULI0)
[12] = molecular target: Nuclear body protein SP140 (Homo sapiens) (UniProt Q13342)
[13] = molecular target: Protein polybromo-1 (Homo sapiens) (UniProt Q86U86); remark: listed apart in the source
[14] = molecular target: Histone-lysine N-methyltransferase 2A (Homo sapiens) (UniProt Q03164)
[15] = molecular target: Protein polybromo-1 (Homo sapiens) (UniProt Q86U86); remark: listed apart in the source
[16] = molecular target: Chromatin remodeling regulator CECR2 (Homo sapiens) (UniProt Q9BXF3)
[17] = molecular target: Bromodomain adjacent to zinc finger domain protein 2B (Homo sapiens) (UniProt Q9UIF8)
[18] = molecular target: Transcription intermediary factor 1-alpha (Homo sapiens) (UniProt O15164)
[19] = molecular target: Bromodomain-containing protein 2 (Homo sapiens) (UniProt P25440)
[20] = molecular target: Bromodomain-containing protein 1 (Homo sapiens) (UniProt O95696)
[21] = molecular target: Transcription initiation factor TFIID subunit 1 (Homo sapiens) (UniProt P21675)
[22] = molecular target: PH-interacting protein (Homo sapiens) (UniProt Q8WWQ0)
[23] = molecular target: Protein polybromo-1 (Homo sapiens) (UniProt Q86U86); remark: listed apart in the source
[24] = molecular target: Bromodomain adjacent to zinc finger domain protein 1A (Homo sapiens) (UniProt Q9NRL2)
[25] = molecular target: Transcription intermediary factor 1-alpha (Homo sapiens) (UniProt O15164); remark: listed apart in the source
[26] = molecular target: Histone acetyltransferase KAT2A (Homo sapiens) (UniProt Q92830)
[27] = molecular target: Bromodomain testis-specific protein (Homo sapiens) (UniProt Q58F21); remark: listed apart in the source
[28] = molecular target: Protein polybromo-1 (Homo sapiens) (UniProt Q86U86); remark: listed apart in the source
[29] = molecular target: Bromodomain and WD repeat-containing protein 1 (Homo sapiens) (UniProt Q9NSI6)
[30] = molecular target: Tyrosine-protein kinase BAZ1B (Homo sapiens) (UniProt Q9UIG0)
[31] = molecular target: SWI/SNF-related matrix-associated actin-dependent regulator of chromatin subfamily A member 2 (Homo sapiens) (UniProt P51531)
[32] = molecular target: Bromodomain-containing protein 9 (Homo sapiens) (UniProt Q9H8M2)
[33] = molecular target: Transcription initiation factor TFIID subunit 1 (Homo sapiens) (UniProt P21675); remark: listed apart in the source
[34] = molecular target: Nuclear body protein SP140-like protein (Homo sapiens) (UniProt Q9H930)
[35] = molecular target: Bromodomain-containing protein 4 (Homo sapiens) (UniProt O60885)
[36] = molecular target: Bromodomain adjacent to zinc finger domain protein 2A (Homo sapiens) (UniProt Q9UIF9)
[37] = molecular target: Transcription initiation factor TFIID subunit 1-like (Homo sapiens) (UniProt Q8IZX4)
Peregrin (Homo sapiens) [38] = molecular target: Peregrin (Homo sapiens) (UniProt P55201)
[39] = molecular target: Transcription initiation factor TFIID subunit 1-like (Homo sapiens) (UniProt Q8IZX4); remark: listed apart in the source
[40] = molecular target: Bromodomain-containing protein 4 (Homo sapiens) (UniProt O60885); remark: listed apart in the source
[41] = molecular target: Bromodomain and PHD finger-containing protein 3 (Homo sapiens) (UniProt Q9ULD4)
[42] = molecular target: Transcription intermediary factor 1-beta (Homo sapiens) (UniProt Q13263)
[43] = molecular target: Bromodomain and WD repeat-containing protein 3 (Homo sapiens) (UniProt Q6RI45)
Peregrin (Homo sapiens) [44] = molecular target: Peregrin (Homo sapiens) (UniProt P55201); remark: listed apart in the source
[45] = molecular target: Bromodomain-containing protein 2 (Homo sapiens) (UniProt P25440); remark: listed apart in the source
[46] = molecular target: Protein polybromo-1 (Homo sapiens) (UniProt Q86U86); remark: listed apart in the source
[47] = molecular target: Bromodomain-containing protein 3 (Homo sapiens) (UniProt Q15059); remark: listed apart in the source

Chain of Protein polybromo-1 (Homo sapiens) (Q86U86 whole entry, the tested form may be a part): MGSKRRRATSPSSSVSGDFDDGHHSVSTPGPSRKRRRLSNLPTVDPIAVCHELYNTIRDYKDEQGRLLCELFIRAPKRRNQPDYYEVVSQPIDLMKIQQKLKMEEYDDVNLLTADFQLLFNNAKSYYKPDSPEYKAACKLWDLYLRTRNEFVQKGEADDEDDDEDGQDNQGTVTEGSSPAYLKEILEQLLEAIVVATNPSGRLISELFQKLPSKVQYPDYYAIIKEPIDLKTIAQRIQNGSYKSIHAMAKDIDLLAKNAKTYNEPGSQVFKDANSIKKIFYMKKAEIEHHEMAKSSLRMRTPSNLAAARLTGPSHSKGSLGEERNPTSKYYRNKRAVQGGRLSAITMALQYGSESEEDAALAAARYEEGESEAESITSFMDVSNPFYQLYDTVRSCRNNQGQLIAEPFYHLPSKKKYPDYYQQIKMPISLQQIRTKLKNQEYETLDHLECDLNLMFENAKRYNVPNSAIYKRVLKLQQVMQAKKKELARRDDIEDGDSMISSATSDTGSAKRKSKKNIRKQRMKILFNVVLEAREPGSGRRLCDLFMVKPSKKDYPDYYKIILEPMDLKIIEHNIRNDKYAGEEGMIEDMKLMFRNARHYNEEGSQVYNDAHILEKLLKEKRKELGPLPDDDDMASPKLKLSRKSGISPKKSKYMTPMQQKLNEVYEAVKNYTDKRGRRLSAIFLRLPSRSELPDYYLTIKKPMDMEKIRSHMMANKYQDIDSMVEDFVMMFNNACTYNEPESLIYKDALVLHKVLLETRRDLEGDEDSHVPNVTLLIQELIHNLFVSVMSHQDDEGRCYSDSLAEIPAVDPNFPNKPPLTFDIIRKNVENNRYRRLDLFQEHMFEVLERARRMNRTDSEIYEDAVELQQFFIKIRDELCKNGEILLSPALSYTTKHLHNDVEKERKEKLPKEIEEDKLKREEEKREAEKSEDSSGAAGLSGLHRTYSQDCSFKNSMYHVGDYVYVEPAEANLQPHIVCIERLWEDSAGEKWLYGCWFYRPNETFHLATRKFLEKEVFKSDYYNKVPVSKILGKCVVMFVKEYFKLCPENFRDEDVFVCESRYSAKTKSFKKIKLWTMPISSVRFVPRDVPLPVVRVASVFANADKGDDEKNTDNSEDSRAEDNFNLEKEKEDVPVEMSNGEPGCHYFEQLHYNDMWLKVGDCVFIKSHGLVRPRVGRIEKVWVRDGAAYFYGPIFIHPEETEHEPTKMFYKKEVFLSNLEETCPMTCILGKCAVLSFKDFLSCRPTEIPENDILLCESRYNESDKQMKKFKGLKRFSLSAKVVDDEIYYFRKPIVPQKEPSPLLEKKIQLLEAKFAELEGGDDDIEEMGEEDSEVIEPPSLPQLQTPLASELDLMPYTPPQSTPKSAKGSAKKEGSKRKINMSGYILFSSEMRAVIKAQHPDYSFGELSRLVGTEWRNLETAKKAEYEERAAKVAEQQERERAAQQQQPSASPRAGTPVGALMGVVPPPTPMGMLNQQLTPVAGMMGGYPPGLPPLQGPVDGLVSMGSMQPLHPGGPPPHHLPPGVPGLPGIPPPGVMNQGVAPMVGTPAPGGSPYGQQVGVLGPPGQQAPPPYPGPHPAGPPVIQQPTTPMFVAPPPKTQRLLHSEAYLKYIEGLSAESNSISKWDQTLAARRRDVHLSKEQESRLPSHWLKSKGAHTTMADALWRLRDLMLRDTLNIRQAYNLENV
Chain of Transcription initiation factor TFIID subunit 1 (Homo sapiens) (P21675 whole entry): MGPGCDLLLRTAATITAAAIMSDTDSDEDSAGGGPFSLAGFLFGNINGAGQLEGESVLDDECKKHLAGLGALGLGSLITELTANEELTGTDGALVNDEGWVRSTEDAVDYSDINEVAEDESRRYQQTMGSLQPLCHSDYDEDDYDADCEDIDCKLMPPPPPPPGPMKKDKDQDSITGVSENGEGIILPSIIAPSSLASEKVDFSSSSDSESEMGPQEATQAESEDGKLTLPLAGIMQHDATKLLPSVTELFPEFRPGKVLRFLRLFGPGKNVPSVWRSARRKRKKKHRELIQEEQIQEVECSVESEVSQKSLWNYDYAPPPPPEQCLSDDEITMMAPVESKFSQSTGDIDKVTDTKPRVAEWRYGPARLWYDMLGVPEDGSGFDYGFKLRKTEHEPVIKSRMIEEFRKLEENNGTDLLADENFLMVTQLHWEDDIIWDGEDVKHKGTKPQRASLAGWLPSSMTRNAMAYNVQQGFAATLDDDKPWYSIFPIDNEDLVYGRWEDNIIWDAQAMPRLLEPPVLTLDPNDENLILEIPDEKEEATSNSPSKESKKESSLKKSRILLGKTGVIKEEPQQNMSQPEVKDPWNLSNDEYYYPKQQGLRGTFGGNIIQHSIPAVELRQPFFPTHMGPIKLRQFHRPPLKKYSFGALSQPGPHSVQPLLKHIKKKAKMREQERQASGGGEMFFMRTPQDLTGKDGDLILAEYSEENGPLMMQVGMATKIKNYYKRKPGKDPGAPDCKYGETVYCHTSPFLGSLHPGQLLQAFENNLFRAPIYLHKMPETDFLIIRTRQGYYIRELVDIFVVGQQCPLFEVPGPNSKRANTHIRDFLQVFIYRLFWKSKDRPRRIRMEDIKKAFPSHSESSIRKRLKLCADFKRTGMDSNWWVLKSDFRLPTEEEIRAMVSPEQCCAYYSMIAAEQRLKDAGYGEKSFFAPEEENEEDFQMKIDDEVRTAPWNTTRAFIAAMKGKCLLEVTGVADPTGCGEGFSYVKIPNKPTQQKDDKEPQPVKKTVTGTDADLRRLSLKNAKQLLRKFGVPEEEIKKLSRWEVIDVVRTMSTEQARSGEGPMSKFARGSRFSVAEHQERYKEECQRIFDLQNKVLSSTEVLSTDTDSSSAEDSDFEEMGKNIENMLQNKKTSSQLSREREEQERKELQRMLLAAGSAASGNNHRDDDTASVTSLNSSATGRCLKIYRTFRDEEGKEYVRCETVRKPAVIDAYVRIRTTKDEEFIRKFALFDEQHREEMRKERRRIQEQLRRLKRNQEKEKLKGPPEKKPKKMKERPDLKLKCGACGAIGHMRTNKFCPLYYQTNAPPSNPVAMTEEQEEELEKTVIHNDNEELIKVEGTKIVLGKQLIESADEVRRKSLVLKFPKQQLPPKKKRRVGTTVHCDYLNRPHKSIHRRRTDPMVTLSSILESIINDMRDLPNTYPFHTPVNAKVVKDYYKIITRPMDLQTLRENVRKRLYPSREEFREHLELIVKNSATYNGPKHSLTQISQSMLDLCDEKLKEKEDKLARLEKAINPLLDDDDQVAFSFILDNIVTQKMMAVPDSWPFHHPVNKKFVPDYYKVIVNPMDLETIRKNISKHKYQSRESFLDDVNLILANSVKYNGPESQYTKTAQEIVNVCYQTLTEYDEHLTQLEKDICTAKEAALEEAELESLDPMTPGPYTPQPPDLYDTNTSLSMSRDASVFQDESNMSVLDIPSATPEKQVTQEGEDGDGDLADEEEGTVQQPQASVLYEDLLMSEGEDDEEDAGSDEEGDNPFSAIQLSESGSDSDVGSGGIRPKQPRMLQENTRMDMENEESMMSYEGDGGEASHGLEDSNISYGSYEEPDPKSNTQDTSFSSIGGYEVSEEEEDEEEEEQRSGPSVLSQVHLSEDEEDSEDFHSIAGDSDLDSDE
Chain of Transcription intermediary factor 1-alpha (Homo sapiens) (O15164 whole entry): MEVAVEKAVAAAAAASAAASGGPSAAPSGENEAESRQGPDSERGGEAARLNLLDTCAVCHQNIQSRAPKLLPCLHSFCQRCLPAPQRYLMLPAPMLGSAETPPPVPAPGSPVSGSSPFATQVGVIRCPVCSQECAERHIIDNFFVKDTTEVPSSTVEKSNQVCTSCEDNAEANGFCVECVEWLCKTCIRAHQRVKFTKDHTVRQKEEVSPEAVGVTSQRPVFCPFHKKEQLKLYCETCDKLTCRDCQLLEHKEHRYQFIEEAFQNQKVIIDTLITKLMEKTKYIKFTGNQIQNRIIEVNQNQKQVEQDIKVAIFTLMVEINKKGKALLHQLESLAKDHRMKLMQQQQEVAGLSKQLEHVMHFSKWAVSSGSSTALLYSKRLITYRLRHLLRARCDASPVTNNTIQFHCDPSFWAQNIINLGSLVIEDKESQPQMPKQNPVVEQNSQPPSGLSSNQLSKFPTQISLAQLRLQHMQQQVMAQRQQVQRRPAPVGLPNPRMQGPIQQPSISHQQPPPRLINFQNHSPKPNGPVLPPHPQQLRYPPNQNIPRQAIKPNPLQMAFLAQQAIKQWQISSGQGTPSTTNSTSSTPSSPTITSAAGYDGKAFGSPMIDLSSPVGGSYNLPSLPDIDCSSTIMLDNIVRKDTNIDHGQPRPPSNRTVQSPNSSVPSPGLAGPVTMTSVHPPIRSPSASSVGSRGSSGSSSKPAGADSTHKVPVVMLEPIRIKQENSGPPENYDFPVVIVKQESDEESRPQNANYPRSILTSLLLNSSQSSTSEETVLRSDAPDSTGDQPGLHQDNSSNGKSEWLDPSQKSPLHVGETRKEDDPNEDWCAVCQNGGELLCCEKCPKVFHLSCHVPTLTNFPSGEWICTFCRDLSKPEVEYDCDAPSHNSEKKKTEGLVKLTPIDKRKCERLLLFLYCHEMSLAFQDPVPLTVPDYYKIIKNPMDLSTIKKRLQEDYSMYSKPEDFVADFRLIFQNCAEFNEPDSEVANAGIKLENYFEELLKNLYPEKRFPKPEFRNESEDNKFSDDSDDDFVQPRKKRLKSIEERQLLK

A ΔTm [1] of 0.62 °C, a ΔTm [2] of 0.95 °C and a ΔTm [3] of 0.42 °C were found for `Cc1nnc2c3ccccc3c(N[C@@H](C)[C@H](c3ccccc3)N(C)C)nn12` in this work. For the same compound, the ΔTm [4] was 0.86 °C, the ΔTm [5] was 0.08 °C and the ΔTm [6] was 0.13 °C. For the same compound, the ΔTm [7] was -0.07 °C, the ΔTm [8] was 1.18 °C and the ΔTm [9] was 0.26 °C. The ΔTm [10] was 0.72 °C, the ΔTm [11] was 0.61 °C and the ΔTm [12] was 0.09 °C. It also gave a ΔTm [13] of 0.43 °C, a ΔTm [14] of 1.14 °C and a ΔTm [15] of 0.1 °C. The ΔTm [16] was 0.63 °C, the ΔTm [17] was 0.67 °C and the ΔTm [18] was 0.69 °C. For the same compound, the ΔTm [19] was -0.06 °C, the ΔTm [20] was -0.26 °C and the ΔTm [21] was 0.5 °C. For the same compound, the ΔTm [22] was -0.82 °C, the ΔTm [23] was 0.65 °C and the ΔTm [24] was 1.31 °C. It also gave a ΔTm [25] of 0.77 °C, a ΔTm [26] of 3.75 °C and a ΔTm [27] of -2.19 °C. For the same compound, the ΔTm [28] was 0.75 °C, the ΔTm [29] was 2 °C and the ΔTm [30] was 0.72 °C. For the same compound, the ΔTm [31] was 0.51 °C, the ΔTm [32] was 0.56 °C and the ΔTm [33] was 0.42 °C. For the same compound, the ΔTm [34] was 0.94 °C, the ΔTm [35] was 0.39 °C and the ΔTm [36] was 0.1 °C. The ΔTm [37] was 0.33 °C, the ΔTm (Peregrin (Homo sapiens) [38]) was 1.03 °C and the ΔTm [39] was 0.67 °C. It also gave a ΔTm [40] of 0.1 °C, a ΔTm [41] of 0.78 °C and a ΔTm [42] of 0.5 °C. The ΔTm [43] was 2.16 °C, the ΔTm (Peregrin (Homo sapiens) [44]) was 1.19 °C and the ΔTm [45] was 0.23 °C. The ΔTm [46] was 0.26 °C and the ΔTm [47] was 0.13 °C.
